Measured values taken from patent US20240132461A1, “FLAVONE DEAZA SPERMIDINE ANALOGUES AND THEIR USE TREATING CANCER” (FLORATEK PHARMA S.A., priority 2021, published 2024).
Counter-ions that a name gives are not always drawn. Each block holds one compound with its values, some of them ahead of it.

Key:
[1] = test system: NCI-H1299; test: Cell viability assay, non-small cell lung carcinoma cell line NCI-H1299; type: cell-based; conditions: Homo sapiens
Procedure: (§1) Antitumor activity of the compounds and doxorubicin as a positive control was assessed by using the CellTiter-Blue Cell Viability Assay (Promega, #G8082) or CellTiter-Glow® Luminescent Cell Viability assay (Promega # G7572) according to the manufacturer's instructions. The compounds were tested at 5 or 6 concentrations in half-log increments (highest concentration 30 μM-100 μM) in duplicate or triplicate well conditions.
(§2) Tumor cells were grown at 37° C. in a humidified atmosphere with 5% CO2 in RPMI 1640 or DMEM medium, supplemented with 10% (v/v) fetal calf serum and 50 μg/ml gentamicin for up to 20 passages, and were passaged once or twice weekly. Cells were harvested using TrypLE or PBS buffer containing 1 mM EDTA, and the percentage of viable cells is determined using a CASY Model TT cell counter (OMNI Life Science). Cells were harvested from exponential phase cultures, counted and plated in 96 well flat-bottom microtiter plates at a cell density depending on the cell line's growth rate (4,000-20,000 cells/well depending on the cell line's growth rate, up to 60,000 for hematological cancer cell lines) in RPMI 1640 or DMEM medium supplemented with 10% (v/v) fetal calf serum and 50 μg/ml gentamicin (140 μl/well). Cultures were incubated at 37° C. and 5% CO2 in a humidified atmosphere. After 24 h, 10 μl of test compounds or control medium are added, and left on the cells for another 72 h. Compounds were serially diluted in DMSO, transferred in cell culture medium, and added to the assay plates. The DMSO concentration was kept constant at <0.3% v/v across the assay plate. Viability of cells was quantified by the CellTiter-Blue® cell viability assay (Promega G8081) or CellTiter-Glow® Luminescent Cell Viability assay (Promega # G7572). Fluorescence (FU) was measured by using the EnSpire® multimode plate reader (Perkin Elmer) (excitation λ=570 nm, emission λ=600 nm) or luminescent detection of ATP in viable cells was used as parameter for proliferation. Luminescence was measured with the microplate luminometer (Promega or Perkin Elmer).
(§3) Sigmoidal concentration-response curves were fitted to the data points (test-versus-control, T/C values) obtained for each tumor model using 4 parameter non-linear curve fit (Charles River DRS Datawarehouse Software) or with GraphPad prism 5.02 software. IC50 values are reported as absolute IC50 values, being the concentration of test compound at the intersection of the concentration-response curves with T/C=50%

[2] = test system: SC6; test: PDX cytotoxicity assay, small cell lung carcinoma PDX SC6; type: cell-based
Procedure: PDX-derived cell cultures were obtained from tumors explanted from mice and isolated by mechanical and enzymatic dissociation. […] Cells were harvested and seeded in 96-wells plates at a density of 1.25 to 5×10^3 cells/well for cytotoxicity assays. Cells were incubated 48 h at 37° C. prior to addition of test molecules and vehicle (DMSO, 0.1%) at desired final concentrations. Cell viability was assessed before drugs' addition (T0) and 5 days after test molecules addition by measuring ATP cell content using CellTiter-Glo® Luminescent Cell Viability Assay (Promega) according to the manufacturer's instructions. Luciferase activity was measured on a luminometer (PerkinElmer® EnVision™). Each concentration of compounds was tested in triplicate.
Viability was calculated as a percentage of ATP value compared to vehicle treated controls.
For PDX primary cell cultures, the tumour tissue was washed with PBS containing antibiotic-antimycotic and non-tumour tissue and necrotic tumour tissues were separated. The tumour tissue was transferred to a new dish and cut into 1˜2 mm^3 fragments, resuspended in RPMI-1640 medium and centrifuged at 1,200 rpm for 6 min at room temperature. The pelleted material was resuspended with 15 mL of Tumour Cell Digestion Solution and incubated at 37° C. for 1 hour with agitation. […]

[3] = test system: lung carcinoma cell; test: Cell viability assay, lung carcinoma cell lines (summary); type: cell-based; conditions: summary of Tables 7A-E; read-out: IC50s, lung carcinoma cell growth
Procedure: as §1, §2, §3

[4] = test system: Panc-1; test: Cell viability assay, pancreatic carcinoma cell line Panc-1; type: cell-based; conditions: Homo sapiens; Panc-1 pancreatic carcinoma cell line
Procedure: as §1, §2, §3

[5] = In vivo maximum tolerated dose in NOG mice
Procedure: In order to evaluate the general toxicity of selected SND compounds in an animal model, a maximum tolerated dose (MTD) in NOG mice has been undertaken. Three mice per group were treated daily or every other day over 8 days at various doses between 5 mg/kg and 10 mg/kg. Administration of the compounds was i.p. A stock solution of the compounds (40 mg/ml in DMSO) was prepared and frozen at −20° C. in aliquots for each treatment. […] Body weights were measured before each treatment. Mice were further observed for 1 week after the last treatment.

[6] = test system: CALU-6; test: Cell viability assay, non-small cell lung carcinoma cell line CALU-6; type: cell-based; conditions: Homo sapiens; CALU-6 non-small cell lung carcinoma cell line
Procedure: as §1, §2, §3

[7] = test system: HL-60; test: Cell viability assay, acute promyelocytic leukemia cell line HL-60; type: cell-based; conditions: Homo sapiens; HL-60 acute promyelocytic leukemia cell line
Procedure: as §1, §2, §3

[8] = test system: pancreatic carcinoma cell; test: Cell viability assay, pancreatic carcinoma cell lines (summary); type: cell-based; conditions: summary of Table 12; read-out: IC50s, pancreatic carcinoma cell growth
Procedure: as §1, §2, §3

[9] = test system: MIA-Pa-Ca-2; test: Cell viability assay, pancreatic carcinoma cell line MIA-Pa-Ca-2; type: cell-based; conditions: Homo sapiens, MIA PaCa-2; MIA-Pa-Ca-2 pancreatic carcinoma cell line
Procedure: as §1, §2, §3

[10] = test system: LN-229; test: Cell viability assay, brain carcinoma cell line LN-229; type: cell-based; conditions: Homo sapiens; LN-229 brain carcinoma cell line, 72 h, absolute IC50
Procedure: as §1, §2, §3

[11] = test system: melanoma cell lines; test: Cell viability assay, melanoma cell lines (summary); type: cell-based; conditions: summary of Tables 14A and 14B; read-out: IC50s, melanoma cell lines growth
Procedure: as §1, §2, §3

[12] = test system: NCI-H292; test: Cell viability assay, mucoepidermoid pulmonary and adenocarcinoma, NCI-H292; type: cell-based; conditions: Homo sapiens
Procedure: as §1
as §2, with “Elmer). […]” for “Elmer).”

[13] = test system: U-251; test: Cell viability assay, brain carcinoma cell line U-251; type: cell-based; conditions: Homo sapiens; U-251 brain carcinoma cell line, 72 h, absolute IC50
Procedure: as §1, §2, §3

[14] = test system: NCI-H441; test: Cell viability assay, mucoepidermoid pulmonary and adenocarcinoma, NCI-H441; type: cell-based; conditions: Homo sapiens
Procedure: as §1
as §2, with “Elmer). […]” for “Elmer).”

[15] = test system: MeWo; test: Cell viability assay, melanoma cell line MeWo; type: cell-based; conditions: Homo sapiens
Procedure: as §1
as §2, with “Elmer). […]” for “Elmer).”

[16] = test system: DMS114; test: Cell viability assay, small cell lung carcinoma cell line DMS114; type: cell-based; conditions: Homo sapiens, DMS-114
Procedure: as §1
as §2, with “Elmer). […]” for “Elmer).”

[17] = test system: U-87MG; test: Cell viability assay, brain carcinoma cell line U-87MG; type: cell-based; conditions: Homo sapiens; U-87MG brain carcinoma cell line, 72 h, absolute IC50
Procedure: as §1, §2, §3

[18] = test system: SH-SY-5Y; test: Cell viability assay, brain carcinoma cell line SH-SY-5Y; type: cell-based; conditions: Homo sapiens, SH-SY5Y; SH-SY-5Y brain carcinoma cell line, 72 h, absolute IC50
Procedure: as §1
as §2, with “Elmer). […]” for “Elmer).”

[19] = test system: NCI-H1437; test: Cell viability assay, non-small lung carcinoma cell line NCI-H1437; type: cell-based; conditions: Homo sapiens
Procedure: as §1, §2, §3

Structure (SMILES): CN(CCCc1ccc(-c2cc(=O)c3ccc(O)c(O)c3o2)cc1)CCN1CCCCC1 [SND171, 7,8-Dihydroxy-2-(4-(3-(methyl(2-(piperidin-1-yl)ethyl)amino)propyl)phenyl)-4H-chromen-4-one dihydrochloride]
IC50 [2]: 15 µM

Structure (SMILES): COc1c(O)ccc2c(=O)cc(-c3ccc(CCCCN4CCN(C)CC4)cc3)oc12 [SND142, 7-Hydroxy-8-methoxy-2-(4-(4-(4-methylpiperazin-1-yl)butyl)phenyl)-4H-chromen-4-one]
IC50 [1]: 1 µM
IC50 [3]: < 20 µM
IC50 [4]: 1.6 µM
tolerability at the highest dose administered ([5]; 8-10 mg/kg i.p., daily or every other day over 8 days): well tolerated
MTD at 8 days ([5]; mouse, in vivo, ip, repeated i.p. administration, MTD not reached, read-out: maximum tolerated dose (MTD), estimated): > 10 mg/kg
IC50 [6]: 1.7 µM
IC50 [7]: 3.48 µM
IC50 [8]: < 10 µM
IC50 [9]: 1 µM

Structure (SMILES): NCCCNCCCCNCCCCc1ccc(-c2cc(=O)c3ccc4c(c3o2)OCO4)cc1 [SND392]
IC50 [3]: < 20 µM
IC50 [10]: 11 µM
IC50 [11]: < 10 µM
IC50 [12]: 3.8 µM
IC50 [13]: 8.4 µM
IC50 [14]: 5.4 µM
IC50 [15]: 9.8 µM
IC50 [16]: 5.4 µM
IC50 [17]: 7.6 µM
IC50 [18]: 3.7 µM
IC50 [19]: 3.1 µM
IC50 [6]: 7 µM
IC50 [7]: 5.9 µM

Structure (SMILES): O=c1cc(-c2ccc(CCCCN3CCCCC3)cc2)oc2c3c(ccc12)OCO3 [SND390]
IC50 [10]: 7 µM
IC50 [19]: 10 µM

Next, values leading:

IC50 [1]: 5.8 µM
Structure (SMILES): COc1c(O)ccc2c(=O)cc(-c3ccc(CN4CCCC4)cc3)oc12 [SND163]

IC50 [1]: 2.7 µM
IC50 [3]: < 20 µM
Structure (SMILES): COc1c(O)ccc2c(=O)cc(-c3ccc(CN(C)CCN4CCCCC4)cc3)oc12 [SND167]

IC50 [1]: 3.7 µM
IC50 [3]: < 20 µM
Structure (SMILES): COc1c(O)ccc2c(=O)cc(-c3ccc(CN4CCCCC4)cc3)oc12 [SND168]
